In assay [1] the target is T1, CCK-B receptor (Rattus norvegicus, UniProt P30553).
T1 construct: freezed at -80°C for storage as a membrane sample; from tissue; host or cells: SD rat whole brain membrane preparation
T1 sequence (P30553 1-452): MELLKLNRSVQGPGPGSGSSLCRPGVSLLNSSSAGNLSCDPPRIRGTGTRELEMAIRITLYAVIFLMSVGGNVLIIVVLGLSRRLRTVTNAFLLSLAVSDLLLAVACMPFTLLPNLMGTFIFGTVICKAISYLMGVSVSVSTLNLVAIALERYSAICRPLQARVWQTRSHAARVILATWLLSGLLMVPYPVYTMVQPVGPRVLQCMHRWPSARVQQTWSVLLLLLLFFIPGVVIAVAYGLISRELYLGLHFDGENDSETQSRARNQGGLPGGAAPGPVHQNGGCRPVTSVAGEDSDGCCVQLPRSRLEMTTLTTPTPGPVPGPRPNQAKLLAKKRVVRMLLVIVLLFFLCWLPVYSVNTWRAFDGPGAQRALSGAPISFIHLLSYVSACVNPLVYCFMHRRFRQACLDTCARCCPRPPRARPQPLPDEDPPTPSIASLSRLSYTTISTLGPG
The experiment in a line: Binding activity to CCK-B receptor: displacement of [125I]BH.CCK-8 from rat whole brain membrane sample. To be noted: rat brain membranes, [125I]BH.CCK-8, 25°C, 120 minutes; read-out: CCK-B Binding IC₅₀. More on the design: species or system SD rats. As for the experimental part:
About 100 conscious SD rats were sacrificed by decapitation, and immediately thereafter the whole brain was extracted. The whole brain was homogenized using a Teflon-glass homogenizer in a 0.32M sucrose aqueous solution in a volume of 10 times the whole brain. The resulting homogenate was centrifuged in a cooled centrifugator at 900 × g for 10 minutes, and the supernatant was further centrifuged at 11,500 × g for 15 minutes. The resulting sediment was suspended in a 0.08% Triton X-100 and a 50 mM Tris-HCl buffering solution (pH 7.4). After allowing the suspension to stand for 30 minutes, the suspension was again centrifuged at 11,500 × g for 15 minutes, and the sediment was washed twice with each of 5 mM and 50 mM Tris-HCl buffers by centrifuging operations. The resulting sediment was suspended in a 50 mM Tris-HCl buffer, and freezed at -80°C for storage as a membrane sample.
After thawing the membrane sample at room temperature, it was diluted with a 10 mM HEPES buffer (130 mM NaCl, 5 mM MgCl₂·1mM EGTA, 0.25 mg/ml bacitracin, pH 6.5) and, after incubating at 25°C for 120 minutes in the presence of [¹²⁵I]BH.CCK-8, B/F separation was performed by suction filtration. The non-specific binding was determined in the presence of 1 µM of CCK-8. The amount of the labelled ligand bonded to the receptor was measured by a γ-counter. A Ki (CCK-B) value was determined from a displacement curve of the test compound by taking the maximum binding amount of the labelled ligand to the receptor as 100%.
On the technique in general: In a radioligand displacement assay an active substance lowers the binding of a labelled ligand.

Assay [2] deals with Gastric Acid Secretion Stimulated by Pentagastrin. The experiment in a line: Inhibition of pentagastrin-stimulated gastric acid secretion in Heidenhain pouch dogs, oral administration. It is filed as in vivo, beagle dogs. Conditions: pentagastrin 8 µg/kg/hr infusion, test drug oral. From the text: (ii) Method of Measurement: Male beagle dogs (7 to 12 kg) fasted overnight was used and subjected to peritoneotomy under GOF anesthesia. After amputating the corpus ventriculi portion parallel to the curvatura ventriculi major, a metal pouch was retained in the suture-closed epigastric region to prepare Heidenhain pouch dogs. The dogs under healthy conditions after two months from the operation were presented to the experiments. Each of the pouch dogs was used at one week intervals.
Pentagastrin was continuously infused (8 µg/kg/hr) into 3 to 5 Heidenhain pouch dogs fasted for 18 hours, and the gastric juice naturally dropped from the pouch was collected at a 15 minute interval. The acid concentration in the gastric juice was calculated from the amount of a 0.05N NaOH required for titrating up to pH of 7.0 using an automatic titration apparatus (Comtite-7, produced by Hiranuma Sangyo), and the product with the amount of the gastric juice was referred to as an acid secretion amount.
Three hours after commencement of the continuous infusion of pentagastrin, a test drug was orally administered, and an inhibitory ratio to the gastric acid secretion at 15 minute intervals was determined to evaluate the effects of the drug.

Assay [3] shares this test system. Description: Inhibition of pentagastrin-stimulated gastric acid secretion in anesthetized rats with perfused stomach, intravenous administration. It is filed as in vivo, SD species rats. To be noted: SD rats, urethane anesthesia, pentagastrin 15 µg/kg/hour i.v., test drug intravenous, dose 0.1 µmol/kg. From the text: (i) Method of Measurement: A cannula was inserted into a trachea of rats anesthetized with urethane (1.25 g/kg intraperitoneal administration) and abdomen was incised to expose stomach and duodenum. After ligating the cardiac portion, a polyethylene cannula was set in the forestomach portion. Further, a small incision was given to the duodenum, and a polyethylene cannula was inserted from the incised portion to a direction of the stomach inside. In order to fix the cannula, the pylorus portion was ligated. A physiological saline (adjusted to pH 7.0) was perfused from forestomach portion to the pylorus portion at a rate of 3 ml/minute. The gastric acid secretion was measured by continuously titrating the perfusate by means of a pH-stat (AUT-201, produced by Toa Electronics Ltd.). The continuous titration was performed by titrating with a 25 mM sodium hydroxide solution using a titration end point of pH 7.0. The results were determined as a gastric acid analysis at 10 minutes intervals (µEq/10 minutes). Then, pentagastrin was intravenously administered (15 µg/kg/hour). After injection of pentagastrin, the acid secretion was increased, and 60 minutes after the injection, the acid secretion reached to its maximum value and stabilized. Thereafter, a test drug was intravenously administered, and the gastric acid secretion was measured. From the gastric acid secretion amount after the test drug injection, a gastric acid secretion inhibitory ratio was calculated by taking the maximum value after the pentagastrin injection as 100%. In this test, two species of rats, i.e., Wistar species rats and SD species rats, were used as test animals, but the embodiments obtained by using the SD species rats are described below. The compounds of the present invention show from 9 to 89% gastric acid secretion inhibitory effects by the administration at a dose of 0.1 µmol/kg. The embodiments are shown below.

The text below walks through data of patent EP0647632A1, “NOVEL BENZ[…]” (YAMANOUCHI PHARMACEUTICAL CO. LTD., priority 1992, dated 1994).

Each structure is given as a SMILES string.

As to `Cc1ccc(C(=O)CN2C(=O)C(NC(=O)Nc3cccc(N(C)C)c3)N=C(c3ccccc3)c3ccccc32)cc1` (single isomer, unassigned; (+)) [Example 21, (+)-1-[2,3-Dihydro-1-(4'-methylphenacyl)-2-oxo-5-phenyl-1H-1,4-benzodiazepin-3-yl]-3-(3-dimethylaminophenyl)urea], in assay [1], the IC50 was 0.16 nM. Further, the “Gastric Acid Secretion Inhibitory Ratio/Dose” value in assay [2] (dose 10 µmol/kg) is on record as 90% (10 µmol/kg); in assay [3], 74% (0.1 µmol/kg).

For the compound `Cc1ccccc1C(=O)CN1C(=O)[C@H](NC(=O)Nc2cccc(N(C)C)c2)N=C(c2ccccc2)c2ccccc21` [Example 3, (R)-1-[2,3-dihydro-1-(2'-methylphenacyl)-2-oxo-5-phenyl-1H-1,4-benzodiazepin-3-yl]-3-(3-dimethylaminophenyl)urea], the IC50 in assay [1] stood at 0.17 nM. For the same compound, the figures for the “Gastric Acid Secretion Inhibitory Ratio/Dose” value in assay [2] (dose 10 µmol/kg) and in assay [3] were 57% (10 µmol/kg) and 63% (0.1 µmol/kg), respectively.

Consider `Cc1ccc(C(=O)CN2C(=O)C(NC(=O)Nc3cccc(N(C)C)c3)N=C(c3ccccn3)c3ccccc32)cc1` (stereo not drawn) [Example 35, 1-[2,3-dihydro-1-(4'-methylphenacyl)-2-oxo-5-(2-pyridyl)-1H-1,4-benzodiazepin-3-yl]-3-(3-dimethylaminophenyl)urea], for which, in assay [1], the IC50 was found to be 2.14 nM. Besides, the “Gastric Acid Secretion Inhibitory Ratio/Dose” value in assay [2] (dose 1 µmol/kg) is listed as 83% (1 µmol/kg); in assay [3] it was 76% (0.1 µmol/kg).
